Molecules are shown by their SMILES.

The values below come from patent US20110184188A1, “Insecticidal Benzenedicarboxamide Derivative” (priority 2008, published 2011).

The first series can be described thus: logP(acid) by reverse phase (C18) chromatography at pH 2.3. In kind it is physicochemical. As to conditions: reverse phase (C18) chromatography at pH 2.3.
Turning to `CSC[C@H](C)NC(=O)c1c(Cl)cccc1C(=O)Nc1ccc(Cn2nc(C(F)F)c(Br)c2C(F)F)nc1C` [13-28], the “logP (acid)” value is given as 3.20.
With `CSC[C@H](C)NC(=O)c1c(I)cccc1C(=O)Nc1ccc(Cn2cc(C(F)(F)C(F)(F)F)c(C(F)(F)C(F)(F)F)n2)nc1C` [13-156], the “logP (acid)” value is “logP (acid) 4.46”.
As for `Cc1nc(Cn2nc(C(F)(F)F)cc2C(F)(F)F)ccc1NC(=O)c1cc(Cl)cc(Cl)c1C(=O)N[C@@H](C)C[S+](C)[O-]` (stereo partly drawn) [10-2], the “logP (acid)” value is “logP (acid) 2.83”.
On to `Cc1nc(Cn2nc(C(F)(F)C(F)(F)F)cc2C(F)(F)F)ccc1NC(=O)c1cccc(Br)c1C(=O)NC(C)C[S+](C)[O-]` (mixture of isomers) [13-188], for which the “logP (acid)” value is listed as “logP (acid) 2.81”.
Consider `Cc1nc(Cn2nc(C(F)F)c(Cl)c2C(F)F)ccc1NC(=O)c1cccc(Cl)c1C(=O)N[C@@H](C)CS(C)(=O)=O` [13-76], for which the “logP (acid)” value amounted to 2.48.
Consider `Cc1nc(Cn2nc(C(F)(F)C(F)(F)F)cc2C(F)(F)F)ccc1NC(=O)c1cccc(Cl)c1C(=O)N[C@@H](C)CS(C)(=O)=O` [13-186], for which the “logP (acid)” value is on record as “logP (acid) 3.12”.
As to `CSC[C@H](C)NC(=O)c1c(Br)cccc1C(=O)Nc1cnc(Cn2nc(C(F)(F)F)cc2C(F)(F)F)cc1C` [13-178], the “logP (acid)” value is “logP (acid) 3.59”.
Regarding `CSC[C@H](C)NC(=O)c1c(Cl)ccc(Cl)c1C(=O)Nc1ccc(Cn2nc(C(F)(F)F)nc2C(F)(F)F)cc1C` [11-26], the “logP (acid)” value is listed as “logP (acid) 4.25”.
In the case of `Cc1nc(Cn2cc(C(F)(F)C(F)(F)F)c(C(F)(F)C(F)(F)F)n2)ccc1NC(=O)c1cccc(Cl)c1C(=O)N[C@@H](C)CS(C)(=O)=O` [13-110], the “logP (acid)” value is listed as “logP (acid) 3.46”.
On to `Cc1nc(Cn2cc(C(F)(F)C(F)(F)F)c(C(F)(F)C(F)(F)F)n2)ccc1NC(=O)c1cccc(Br)c1C(=O)N[C@@H](C)C[S+](C)[O-]` (stereo partly drawn) [13-138], for which the “logP (acid)” value was “logP (acid) 3.03”.
As to `CSC[C@H](C)NC(=O)c1c(I)cccc1C(=O)Nc1ccc(Cn2nc(C(F)(F)C(F)(F)F)cc2C(F)(F)F)nc1C` [13-157], the “logP (acid)” value is on record as “logP (acid) 4.39”.
For the compound `CSC[C@H](C)NC(=O)c1c(Cl)cccc1C(=O)Nc1ccc(Cn2nc(C(F)F)c(Cl)c2C(F)F)nc1C` [13-27], the “logP (acid)” value stood at 3.21.
`CSC[C@H](C)NC(=O)c1c(I)cccc1C(=O)Nc1ccc(Cn2nc(C(F)F)c(Cl)c2C(F)F)nc1C` [13-145]: the “logP (acid)” value is “logP (acid) 3.34”.
Turning to `Cc1cc(Cn2nc(C(F)(F)F)cc2C(F)(F)F)ncc1NC(=O)c1cccc(I)c1C(=O)NC(C)C[S+](C)[O-]` (mixture of isomers) [13-182], the “logP (acid)” value is “logP (acid) 2.3”.
Same read-out and setting: for `CSC[C@H](C)NC(=O)c1c(Br)cccc1C(=O)Nc1ccc(Cn2nc(C(F)F)c(Cl)c2C(F)F)nc1C` [13-126] the value was “logP (acid) 3.28”; for `Cc1nc(Cn2nc(C(F)(F)C(F)(F)C(F)(F)F)cc2C(F)(F)F)ccc1NC(=O)c1cccc(Br)c1C(=O)N[C@@H](C)CS(C)(=O)=O` [13-139], “logP (acid) 3.56”; for `CSC[C@H](C)NC(=O)c1c(Cl)cccc1C(=O)Nc1cnc(Cn2nc(C(F)(F)F)cc2C(F)(F)F)cc1C` [13-175], “logP (acid) 3.52”.
Take `CCCCCSc1nc(C(F)(F)F)nn1Cc1ccc(NC(=O)c2cccc(Cl)c2C(=O)NC(C)CSC)c(C)c1` (stereo not drawn) [14-40]: the “Physical property logP (acid)” value was “logP (acid) 4.91”.
On the same count and under the same terms, for `Cc1nc(Cn2nc(C(F)(F)C(F)(F)F)nc2C(F)(F)F)ccc1NC(=O)c1cccc(Cl)c1C(=O)NC(C)C[S+](C)[O-]` (stereo not drawn) [14-60] the value was “logP (acid) 2.59”.

Staying with this series, now noted: reverse phase (C18) chromatography at pH2.3, 0.1% phosphoric acid aqueous solution / acetonitrile, linear gradient 10-95%.
Take `CSC[C@H](C)NC(=O)c1c(Cl)cccc1C(=O)Nc1cccc(Cn2cc(C(F)(F)C(F)(F)F)c(C(F)(F)C(F)(F)F)n2)c1C` [4-6]: the “logP (acid)” value was “logP (acid) 4.52”.

The same series, now with this note: reverse phase (C18) chromatography column, pH 2.3; reverse phase (C18) chromatography, pH2.3, 0.1% phosphoric acid / acetonitrile gradient 10-95%; read-out: logP (acid).
On to `Cc1nc(Cn2cc(C(F)(F)C(F)(F)F)c(C(F)(F)C(F)(F)F)n2)ccc1[N+](=O)[O-]` [SYNTHESIS EXAMPLE 82-1], for which the chromatographic logP turned out to be 4.5.
On the same count and under the same terms, as for `Cc1nc(Cn2nc(C(F)(F)C(F)(F)F)cc2C(F)(F)C(F)(F)F)ccc1[N+](=O)[O-]` [SYNTHESIS EXAMPLE 81-1], the figure is 4.68.

The same series, now with this note: reverse phase (C18) chromatography, pH 2.3.
In the case of `CSC[C@H](C)NC(=O)c1c(Cl)cccc1C(=O)Nc1cnc(Cn2nc(C(F)(F)F)nc2C(F)(F)F)cc1C` [14-268], the “logP (acid)” value is given as “logP (acid) 3.26”.
On the same count and under the same terms, as for `CSC[C@H](C)NC(=O)c1c(Cl)cccc1C(=O)Nc1ccc(N(C)c2c(C(F)(F)F)c(C(F)(F)C(F)(F)F)nn2C)nc1C` [13-353], the entry is “logP (acid) 4.19”; as for `CSC[C@H](C)NC(=O)c1c(SC)cccc1C(=O)Nc1ccc(Cn2nc(C(F)(F)C(F)(F)F)cc2C(=O)C(F)(F)F)cc1C` [13-325], “logP (acid) 3.50”.
With `Cc1cc(Cn2nc(C(F)(F)C(F)(F)F)n(N)c2=O)ccc1NC(=O)c1cccc(Cl)c1C(=O)N[C@@H](C)C[S+](C)[O-]` (stereo partly drawn) [14-422], the “logP (acid)” value is given as “logP (acid) 1.82”.
For `CSCC(C)NC(=O)c1c(SC)cccc1C(=O)Nc1ccc(C(O)c2cc(C(F)(F)C(F)(F)F)n[nH]2)cc1C` (mixture of isomers) [13-340], the “logP (acid)” value was “logP (acid) 2.77”.
As for `CSC[C@H](C)NC(=O)c1c(Cl)cccc1C(=O)Nc1ccc(Cn2nc(C(F)(F)F)cc2C(F)(F)F)nc1Cl` [13-232], the “logP (acid)” value is recorded as “logP (acid) 3.97”.
In the case of `CC(=O)CC(C)NC(=O)c1c(Cl)cccc1C(=O)Nc1ccc(Cn2nc(C(F)(F)C(F)(F)F)nc2C(F)(F)F)cc1C` (stereo not drawn) [14-295], the “logP (acid)” value is “logP (acid) 3.56”.
`Cc1nc(Cn2nc(C(F)(F)F)cc2C(F)(F)F)ccc1NC(=O)c1c(Cl)cccc1C(=O)NC1=NN(c2ccccc2)C(=O)C1` [13-281]: the “logP (acid)” value is listed as “logP (acid) 4.41”.
For `CSc1cccc(C(=O)Nc2ccc(Cn3nc(C(F)(F)C(F)(F)F)cc3C(F)(F)F)nc2C)c1C(=O)N[C@@H](C)C[S+](C)[O-]` (stereo partly drawn) [13-343], the “logP (acid)” value was “logP (acid) 2.78”.
For `Cc1cc(Cn2nnc(-c3ccc(C(F)(F)F)cc3)n2)ccc1NC(=O)c1cccc(Cl)c1C(=O)N[C@@H](C)CS(C)(=O)=O` [14-349], the “logP (acid)” value is listed as “logP (acid) 3.23”.
`Cc1nc(Cn2nc(C(F)(F)F)nc2C(F)(F)F)ccc1NC(=O)c1cccc(S(=O)(=O)N(C)C)c1C(=O)N[C@@H](C)C[S+](C)[O-]` (stereo partly drawn) [14-367]: the “logP (acid)” value is “logP (acid) 2.25”.
With `CCC(CC#N)NC(=O)c1c(Cl)cccc1C(=O)Nc1ccc(Cn2nc(C(F)(F)F)cc2C(F)(F)F)cc1C` (stereo not drawn) [13-277], the “logP (acid)” value is “logP (acid) 3.42”.
For the compound `CSCC(C)NC(=O)c1c(Cl)cccc1C(=O)Nc1ccc(Cn2cc(C3=NOC(c4cc(Cl)cc(Cl)c4)(C(F)(F)F)C3)c(C(F)(F)F)n2)cc1C` (mixture of isomers) [13-201], the “logP (acid)” value is listed as “logP (acid) 3.43”.
The same measure, in the same setting: for `CSC[C@H](C)NC(=O)c1c(Cl)cccc1C(=O)Nc1ccc(Cn2cc(C(=O)C(F)(F)C(F)(F)F)c(C(F)(F)C(F)(F)F)n2)cc1C` [13-205] the value was “logP (acid) 4.46”.
For `Cc1nc(Cn2c(C(F)(F)F)nc(Cl)c2Cl)ccc1NC(=O)c1cccc(Cl)c1C(=O)N[C@@H](C)CS(C)(=O)=O` [13-364], the “logP (acid)” value was “logP (acid) 2.59”.
On the same count and under the same terms, as for `CCS(=O)(=O)c1cccc(C(=O)Nc2ccc(Cn3nc(C(F)(F)F)cc3C(F)(F)F)cc2C)c1C(=O)N[C@@H](C)CSC` [13-346], the entry is “logP (acid) 3.74”; as for `CSC[C@H](C)NC(=O)c1c(SC)cccc1C(=O)Nc1ccc(Cn2nc(C(F)(F)C(F)(F)F)n(C(F)F)c2=O)cc1C` [14-389], “logP (acid) 3.53”; as for `Cc1cc(Cn2nc(C(F)(F)C(F)(F)F)n(C(F)F)c2=O)ccc1NC(=O)c1cccc(Cl)c1C(=O)N[C@@H](C)CS(C)(=O)=O` [14-330], “logP (acid) 2.85”.
For `CSC[C@H](C)NC(=O)c1cc(Cl)c(Cl)cc1C(=O)Nc1ccc(Cn2nc(C(F)(F)F)cc2C(F)(F)F)nc1C` [13-238], the “logP (acid)” value was “logP (acid) 3.74”.
Turning to `CSC[C@H](C)NC(=O)c1c(I)cccc1C(=O)Nc1ccc(Cn2nc(C(F)(F)C(F)(F)F)n(C(F)F)c2=O)cc1C` [14-334], the “logP (acid)” value is on record as “logP (acid) 3.11”.
`CSC[C@H](C)NC(=O)c1c(SC)cccc1C(=O)Nc1ccc(Cn2nc(C(F)(F)C(F)(F)F)cc2C(F)(F)C(F)(F)F)nc1C` [13-342]: the “logP (acid)” value is “logP (acid) 4.45”.
As to `CSC[C@H](C)NC(=O)c1c(Cl)cccc1C(=O)Nc1ccc(Cn2cc(C(=O)NC(C)C)c(C(F)(F)F)n2)cc1C` [13-209], the “logP (acid)” value is listed as “logP (acid) 2.87”.
Turning to `Cc1nc(Cn2nc(C(F)(F)F)cc2C(F)(F)F)ccc1NC(=O)c1cccc(S(=O)(=O)N(C)C)c1C(=O)NC(C)C[S+](C)[O-]` (mixture of isomers) [13-288], the “logP (acid)” value is reported as “logP (acid) 2.37”.

The series is the same for the next values; noted with them: reverse phase (C18) chromatography, pH2.3, 0.1% phosphoric acid / acetonitrile gradient 10-95%.
`CSC[C@H](C)NC(=O)c1c(Cl)cccc1C(=O)Nc1cc(F)c(C)nc1Cn1nc(C(F)(F)F)cc1C(F)(F)F` [3-7]: the “logP (acid)” value is listed as “logP (acid) 4.28”.

Staying with this series, now noted: reverse phase (C18) chromatography, pH2.3, 0.1% phosphoric acid aqueous solution / acetonitrile, linear gradient 10-95% acetonitrile.
On to `CSC[C@H](C)NC(=O)c1c(C(=O)Nc2ccc(Cn3nc(C(F)(F)C(F)(F)F)nc3C(F)(F)F)cc2C)ccc([N+](=O)[O-])c1Cl` [9-15], for which the “logP (acid)” value is reported as “logP (acid) 4.27”.
On to `CSC[C@H](C)NC(=O)c1c(C(=O)Nc2ccc(Cn3nc(C(F)(F)C(F)(F)F)nc3C(F)(F)F)cc2C)ccc(C(F)(F)F)c1Cl` [9-23], for which the “logP (acid)” value was “logP (acid) 4.63”.
Turning to `CSC[C@H](C)NC(=O)c1c(C(=O)Nc2ccc(Cn3nc(C(F)(F)F)cc3C(F)(F)F)cc2C)ccc(C(F)(F)F)c1Cl` [9-14], the “logP (acid)” value is given as “logP (acid) 4.62”.
As for `CSC[C@H](C)NC(=O)c1c(C(=O)Nc2ccc(Cn3nc(C(F)(F)C(F)(F)F)nc3C(F)(F)F)cc2C)ccc(F)c1Br` [9-12], the “logP (acid)” value is “logP (acid) 4.29”.
Turning to `Cc1cc(Cn2nc(C(F)(F)C(F)(F)F)nc2C(F)(F)F)ccc1NC(=O)c1ccc(F)c(Br)c1C(=O)N[C@@H](C)CS(C)(=O)=O` [9-22], the “logP (acid)” value is recorded as “logP (acid) 3.36”.
